# Laboratory results: patent US11180657B2, “Polysulfonated fluorescence dyes” (ATTO-TEC GmbH, priority 2017, dated 2021)
# Marks after values point to notes of the source that are not given here.
# Experiments:
# [1] = Absorption maximum of the dye; assay type: physicochemical
# From the text: (§1) Examples of the compounds according to the invention are listed in Tables 2-6, where the structures as well as the absorption and fluorescence maxima are indicated. The spectra of selected compounds are shown FIGS. 5-18.
# [2] = Fluorescence maximum of the dye; assay type: physicochemical; details: solvent PBS pH 7.4
# From the text: as §1
SMILES,λabs ([1]; solvent water/acetonitrile 1:1),λfl [2],λabs ([1]; solvent PBS pH 7.4)
O=C(O)c1ccccc1-c1c2cc/c(=N/CS(=O)(=O)O)c(S(=O)(=O)O)c-2oc2c(S(=O)(=O)O)c(NCS(=O)(=O)O)ccc12 [Compound 1],533^c nm,554^b nm,
CCN(Cc1ccccc1S(=O)(=O)O)c1ccc2c(-c3ccccc3C(=O)O)c3cc/c(=[N+](\CC)Cc4ccccc4S(=O)(=O)O)cc-3oc2c1 [Compound 2],554^c nm,584^b nm,
CCN(Cc1ccc(S(=O)(=O)O)cc1S(=O)(=O)O)c1ccc2c(-c3ccccc3C(=O)O)c3cc/c(=[N+](\CC)Cc4ccc(S(=O)(=O)O)cc4S(=O)(=O)O)cc-3oc2c1 [Compound 3],550^c nm,583^b nm,
O=C(O)c1ccccc1-c1c2cc/c(=N/Cc3ccc(S(=O)(=O)O)cc3S(=O)(=O)O)cc-2oc2cc(NCc3ccc(S(=O)(=O)O)cc3S(=O)(=O)O)ccc12 [Compound 4],536^c nm,559^b nm,
CN(CCCC(=O)O)C(=O)c1ccccc1-c1c2ccc(=[N+](Cc3ccc(S(=O)(=O)O)cc3S(=O)(=O)O)Cc3ccc(S(=O)(=O)O)cc3S(=O)(=O)O)cc-2oc2cc(N(Cc3ccc(S(=O)(=O)O)cc3S(=O)(=O)O)Cc3ccc(S(=O)(=O)O)cc3S(=O)(=O)O)ccc12 [Compound 9],550^c nm,572^b nm,
CN(CCCC(=O)O)C(=O)c1cc2ccccc2cc1-c1c2cc/c(=N/Cc3ccc(S(=O)(=O)O)cc3S(=O)(=O)O)c(S(=O)(=O)O)c-2oc2c(S(=O)(=O)O)c(NCc3ccc(S(=O)(=O)O)cc3S(=O)(=O)O)ccc12.CS(=O)(=O)O.CS(=O)(=O)O [Compound 33],539^c nm,,

# The next lines start with the values.
λabs ([1]; solvent water/acetonitrile 1:1),λfl [2],λabs ([1]; solvent PBS pH 7.4),SMILES
560^c nm,584^b nm,,CCN(Cc1ccc(S(=O)(=O)O)cc1S(=O)(=O)O)c1ccc2c(-c3ccccc3C(=O)N(C)CCCC(=O)O)c3cc/c(=[N+](\CC)Cc4ccc(S(=O)(=O)O)cc4S(=O)(=O)O)cc-3oc2c1 [Compound 5]
534^c nm,559^b nm,,CN(CCCC(=O)ON1C(=O)CCC1=O)C(=O)c1ccccc1-c1c2cc(S(=O)(=O)O)/c(=N/Cc3ccc(S(=O)(=O)O)cc3S(=O)(=O)O)cc-2oc2cc(NCc3ccc(S(=O)(=O)O)cc3S(=O)(=O)O)c(S(=O)(=O)O)cc12 [Compound 7]
567^c nm,,,CN(CCCC(=O)O)C(=O)c1ccccc1C1=c2cc3c(cc2Oc2cc4c(cc21)CCCN4Cc1ccc(S(=O)(=O)O)cc1S(=O)(=O)O)=[N+](Cc1ccc(S(=O)(=O)O)cc1S(=O)(=O)O)CCC3 [Compound 28]
531^c nm,,,CN(CCCC(=O)O)C(=O)c1ccccc1-c1c2cc/c(=N/Cc3ccc(S(=O)(=O)O)cc3S(=O)(=O)O)c(S(=O)(=O)O)c-2oc2c(S(=O)(=O)O)c(NCc3ccc(S(=O)(=O)O)cc3S(=O)(=O)O)ccc12 [Compound 29]
536^c nm,,,O=C(O)CN(CCS(=O)(=O)O)C(=O)c1ccccc1-c1c2cc/c(=N/Cc3ccc(S(=O)(=O)O)cc3S(=O)(=O)O)c(S(=O)(=O)O)c-2oc2c(S(=O)(=O)O)c(NCc3ccc(S(=O)(=O)O)cc3S(=O)(=O)O)ccc12 [Compound 30]
532^c nm,,,CN(CCCC(=O)O)C(=O)c1ccccc1-c1c2cc/c(=N/Cc3ccc(S(=O)(=O)O)cc3S(=O)(=O)O)c(S(=O)(=O)O)c-2oc2c(S(=O)(=O)O)c(NCc3ccc(S(=O)(=O)O)cc3S(=O)(=O)O)ccc12.CS(=O)(=O)O [Compound 31]
530^c nm,,,CN(CCCC(=O)O)C(=O)c1c(-c2c3cc/c(=N/Cc4ccc(S(=O)(=O)O)cc4S(=O)(=O)O)c(S(=O)(=O)O)c-3oc3c(S(=O)(=O)O)c(NCc4ccc(S(=O)(=O)O)cc4S(=O)(=O)O)ccc23)cc(S(=O)(=O)O)cc1S(=O)(=O)O [Compound 32]
,,530^b nm,CN(CCCC(=O)O)C(=O)c1ccccc1-c1c2cc/c(=N/Cc3cc(S(=O)(=O)O)c4cc(S(=O)(=O)O)cc(S(=O)(=O)O)c4c3)c(S(=O)(=O)O)c-2oc2c(S(=O)(=O)O)c(NCc3cc(S(=O)(=O)O)c4cc(S(=O)(=O)O)cc(S(=O)(=O)O)c4c3)ccc12 [Compound 34]
